Test results taken from patent US9868707B2, “Small molecule agonists of neurotensin receptor 1” (SANFORD-BURNHAM MEDICAL RESEARCH INSTITUTE, priority 2012, dated 2018).

Key:
[1] = test system: GPCR binding assay panel (˜40 receptors); assay: PDSP GPCR binding assay panel
Description: However, these activities in in vitro binding assays may not translate into functional modulation of these receptors.

[2] = target: T1, NTR1 (Homo sapiens, UniProt P30989); assay: NTR1 Ca2+ Flux dose response (ChanTest, CHO); assay type: cell-based; set-up: host or cells: CHO; conditions: profiled by ChanTest
Procedure: The NTR1 Ca^2+ Flux assay was performed by ChanTest (Rockville, Md.). The assay used a CHO cell line, provided by ChanTest, which stably expressed the NTR1 receptor. The cells were grown and plated in Ham's F12 (11765) that was supplemented with fetal bovine serum (10437). Both were supplied by Gibco/Life Technologies (Carlsbad, Calif.). The DPBS (21-031CV) used in the assay was obtained from Cellgro/Mediatech and the G418 (ant-gn-1) was supplied by Invivogen. The Fluo-4 NW Dye (Invitrogen F36206) used to detect calcium mobilization was sourced by Invitrogen. […]
NTSR1 (NTR1) CHO cells are plated in 20 uL of assay media containing Ham's F12 supplemented with 10% fetal bovine serum and 0.4 mg/mL G418 at a concentration of 1.0×10^6 cells per mL into black, 384-well assay plates with clear bottoms using a Multidrop liquid handler. […] Following the incubation in the presence of dye, the assay is run on a Molecular Devices FlexStation-III using 494 excitation and 516 emission wavelengths set to read for 90 seconds with the addition at 18 seconds of 5 uL of 6× final concentration of test compounds and peptide control diluted in assay media containing 0.1% BSA and no more than 9% DMSO to yield a maximum final DMSO concentration of 1.5%. Percent activation is calculated based on the maximum response minus the minimum value over the time course relative to the neurotensin 1 control peptide at 100 pM. […]
Target sequence in this assay (P30989 whole entry): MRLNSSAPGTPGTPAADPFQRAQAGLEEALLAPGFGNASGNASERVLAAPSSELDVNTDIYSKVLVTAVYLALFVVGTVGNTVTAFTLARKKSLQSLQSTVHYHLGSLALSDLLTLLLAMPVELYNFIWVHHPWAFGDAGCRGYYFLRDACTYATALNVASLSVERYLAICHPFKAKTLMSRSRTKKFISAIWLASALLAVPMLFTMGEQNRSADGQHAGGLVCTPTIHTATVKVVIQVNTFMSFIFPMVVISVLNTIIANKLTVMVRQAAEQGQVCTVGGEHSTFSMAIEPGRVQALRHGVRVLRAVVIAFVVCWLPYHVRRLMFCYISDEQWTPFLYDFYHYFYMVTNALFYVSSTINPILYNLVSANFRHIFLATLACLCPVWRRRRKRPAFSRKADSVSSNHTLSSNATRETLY

[3] = target: T1, NTR1; assay: NTR1 high-content imaging (HCS) dose response, NTR1-U2OS cells; assay type: cell-based; set-up: host or cells: U2OS osteosarcoma; conditions: n = 4 unless otherwise noted
Description: The cell lines utilized in the high-content imaging assays, which include the NTR1-, NTR2-, and GPR35-U2OS osteosarcomas, were obtained from the laboratory of Dr. Lawrence Barak at the Duke University Medical Center. The media used in the culture of the cell lines, as well as the assays themselves, consisted of Minimum Essential Medium (15-010-CM) and L-glutamine (25-005-CL) from Cellgro/Mediatech (Manassas, Va.), fetal bovine serum (SH30396.03) from Hyclone (Logan, Utah), penicillin-streptomycin solution (PS-20) from Omega Scientific in Tarzana, Calif., G418 (ant-gn-1) from Invivogen (San Diego, Calif.), and zeocin (R250-01) from Invitrogen (Carlsbad, Calif.). Cell lines were cultured in T225 tissue culture flasks (431082) supplied by Corning (Corning, N.Y.). Additional reagents employed include Dulbecco's Phosphate-Buffered Saline (DPBS) (21-031CV) from Cellgro/Mediatech, Trypsin-EDTA 0.05% (25300) from Invitrogen, paraformaldehyde (30528954) from Acros Organics (Geel, Belgium), Hoechst 33342 (H3570) from Invitrogen. The high-content assays were run in 1536-well plates (29326) supplied by Aurora Biotechnology (Poway, Calif.) and utilized aluminum plate seals (T592100) from E&K Scientific (Santa Clara, Calif.).
The neurotensin 1 peptide (N6383) from Sigma-Aldrich (St. Louis, Mo.) was used as a positive control in the NTR1 primary HCS assay. For the NTR2 selectivity assay, the non-specific, small molecule 3-(4-fluorophenyl)-7,8-dimethoxy-5-(4-methylbenzyl)-5H-pyrazolo[4,3-c]quinolone which was synthesized internally was used as a positive control. The GPR35 selectivity screen utilized zaprinast (ALX430-020-M010) from Alexis Biochemicals (Farmingdale, N.Y.) as a control.
The high-content imaging based NTR1 primary screen in 1536-well format was utilized to assay the MLSMR library of chemical entities in the following manner. On day one, 4 uL of a cell suspension containing 350,000 NTR1-U2OS cells per mL is added to each well of a 1536-well assay plate. Cells are plated in MEM medium containing 2.5% Fetal Bovine Serum, 1% Penicillin/Streptomycin solution, 1% L-Glutamine, 400 ug/mL G418, and 200 ug/mL Zeocin. The assay plates are then incubated overnight at 37° C., under 5% CO2. Following the overnight incubation, a volume of 60 nL of the compounds at 2 mM in DMSO (final 20 μM, 1% DMSO) was transferred to columns 5-48 of the assay plates using a LabCyte Echo Liquid Handler. Next, 60 nL of DMSO were dispensed to columns 1-4, which served as the positive and neutral control wells. […] The assay plates were centrifuged on an Eppendorf 5810 centrifuge at 1000 rpm for 1 min to ensure even liquid levels in the wells of the assay plates. The assay plates were then returned to the incubator for 1 hour. Following the hour-long incubation at 37° C., the cells in each well were fixed with 4 uL of 6% paraformaldehyde added with a Multidrop Combi. The assay plates were centrifuged as before and incubated at room temperature for 1 hour. On the Kalypsys, plates were then aspirated down to 2.5 uL per well and washed twice with 11 uL per well of DPBS, followed by a final aspiration to 2.5 uL per well. On the Combi dispenser, 5 uL of 5 ug/mL Hoechst 33342 diluted in DPBS was added to each well of assay plates. The plates were again centrifuged as previously described, sealed, and incubated for at least 1 hour prior to being loaded on a PerkinElmer Opera QEHS.
Image acquisition was performed with a 45 plate capacity loader/stacker and the following settings: 40×0.6 NA air objective, acquisition camera set to 2-by-2 binning for an image size of 688 by 512 pixels, beta-arrestin-GFP acquired using 488 nm laser excitation and 540/75 nm emission filters, DAPI (nuclei) using 365 nm Xenon lamp excitation and 450/50 nm emission filters, 3 fields per well. Image analysis was performed using the Acapella Spot Detection Algorithm. For analysis settings and the metrics employed in the data analyses, please refer to supplemental information.
Target sequence in this assay (P30989 whole entry, species assumed): as the sequence (P30989 whole entry) above

**Q.** With COc1cc2nc(C3CC3)nc(N3CCN(c4ccccc4OC)CC3)c2cc1OC [Compound 315, 2-cyclopropyl-6,7-dimethoxy-4-(4-(2-methoxyphenyl)piperazin-1-yl)quinazoline] as the compound, how does the “promiscuity in GPCR binding assay panel” value ([1]; at 10 μM, ˜40 receptors tested) read?
**A.** moderately promiscuous

**Q.** And the Ki ([1]; on 7 receptors, read-out: Kis in GPCR binding assay panel)?
**A.** < 10 µM

**Q.** And the “NTR1 Ca2+ Flux assay activity” value [2]?
**A.** not active

**Q.** And the EC50 ([3]; Ave. ± S.E.M., read-out: HCS NTR1 Potency EC50)?
**A.** 2 ± 0.1 µM

**Q.** And the Emax ([3]; read-out: HCS NTR1 Potency Emax)?
**A.** 105%
